The values below come from US10124004B2, “Pyrido[3,4-d]pyrimidine derivative and pharmaceutically acceptable salt thereof” (Teijin Pharma Limited, priority 2015, dated 2018).

Where two headings read alike, the source gives them in different places.

What all share (assay type): biochemical
One assay addresses CDK6/cyclin D3 (Homo sapiens, UniProt Q00534). As to the kind of experiment: Human CDK6/cyclin D3 inhibitory activity (off-chip mobility shift assay). The conditions noted are these: 50% inhibitory concentration against CDK6/cyclin D3; 300 μM ATP, room temperature, five hours; read-out: CDK6 Activity Symbol. As to the method: Human CDK6/Cyclin D3 Inhibitory Activity
CDK6/cyclin D3 inhibitory activity was determined by the off-chip mobility shift assay (MSA). The MSA separates proteins from one another on the basis of a difference in electrophoretic mobility depending on the molecular weight or electric charge of the proteins. The kinase activity is determined by quantifying the degree of phosphorylation through electrophoretic analysis of a positive to negative change in electric charge of the substrate phosphorylated by the kinase.
Each solution was prepared with an assay buffer containing 20 mM HEPES (pH 7.5), 0.01% Triton X-100, and 2 mM dithiothreitol. A test compound solution was prepared by dilution of the test compound with dimethyl sulfoxide (DMSO) to a concentration 100 times higher than the final concentration and then 25-fold dilution with the assay buffer to a concentration four times higher than the final concentration. An ATP/substrate/metal solution was prepared to have a concentration four times higher than the final concentration. An enzyme solution was prepared to have a concentration twice higher than the final concentration. The final enzyme concentration was adjusted to an appropriate level on the basis of the enzyme activity signal and the inhibitory activity of a positive control compound.
The test compound solution (5 μL/well) and the ATP/substrate/metal solution (5 μL/well) were added to a 384-well plate, and the enzyme solution or the assay buffer (10 μL/well) was added to the plate (total amount of the reaction mixture: 20 μL/well) for initiation of enzymatic reaction. […] The reaction was performed at room temperature for five hours, and a termination buffer (QuickScout Screening Assist MSA, manufactured by Carna Biosciences, Inc.) (60 μL/well) was then added to the plate for termination of the reaction. Subsequently, the substrate peptide and the phosphorylated peptide in the reaction mixture were separated from each other and quantified with LabChip 3000 (manufactured by Caliper Lifesciences). The kinase reaction was evaluated by the product ratio (P/(P+S)) calculated from the peak height (S) of the substrate peptide and the peak height (P) of the phosphorylated peptide.
The percent inhibition of enzyme activity was calculated for each test compound (note: enzyme activity=100% in the case of addition of the enzyme solution and addition of DMSO instead of the test compound solution, whereas enzyme activity=0% in the case of addition of the assay buffer instead of the enzyme solution and addition of DMSO instead of the test compound solution). The percent inhibition of enzyme activity was fitted to a dose-response curve, to determine a 50% inhibitory concentration against CDK6/cyclin D3.
In each table, “+++” corresponds to IC50<10 nM, “++” 10 nM≤IC50<100 nM, and “+” 100 nM≤IC50.

Another assay addresses T1, CDK2/cyclin A2 (Homo sapiens, UniProt P24941).
T1 construct: purchased Carna Biosciences, Inc. QS S Assist CDK2/Cyclin A2_FP Kit
The assay can be described thus: Human CDK2/cyclin A2 inhibitory activity (QS S Assist CDK2/Cyclin A2_FP Kit, IMAP fluorescence polarization). The essentials: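 Kinase activity read as fluorescence polarization (485/535 nm) after phosphorylated fluorescent substrate binds IMAP reagent (30 min, RT, dark). Enzyme (2.5 ng/well) reacted 60 min at RT with ATP/substrate/metal in HEPES pH 7.4 buffer with Tween 20 and DTT; no-enzyme wells define 0% activity; IC50 by curve fit.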

For the next assay, the target named is T2, CDK4/cyclin D3 (Homo sapiens, UniProt P11802).
T2 construct: purchased Carna Biosciences, Inc. QS S Assist CDK4/Cyclin D3_FP Kit
T2 sequence (P11802 whole entry): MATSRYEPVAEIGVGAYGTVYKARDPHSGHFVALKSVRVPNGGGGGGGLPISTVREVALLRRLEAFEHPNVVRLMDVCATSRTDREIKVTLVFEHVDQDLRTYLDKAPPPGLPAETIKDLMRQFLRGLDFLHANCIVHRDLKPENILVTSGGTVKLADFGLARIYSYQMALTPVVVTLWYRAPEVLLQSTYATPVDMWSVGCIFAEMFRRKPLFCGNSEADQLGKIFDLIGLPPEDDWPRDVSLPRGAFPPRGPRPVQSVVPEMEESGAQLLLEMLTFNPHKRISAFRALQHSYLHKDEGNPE
T2 sequence (P30281 whole entry partner): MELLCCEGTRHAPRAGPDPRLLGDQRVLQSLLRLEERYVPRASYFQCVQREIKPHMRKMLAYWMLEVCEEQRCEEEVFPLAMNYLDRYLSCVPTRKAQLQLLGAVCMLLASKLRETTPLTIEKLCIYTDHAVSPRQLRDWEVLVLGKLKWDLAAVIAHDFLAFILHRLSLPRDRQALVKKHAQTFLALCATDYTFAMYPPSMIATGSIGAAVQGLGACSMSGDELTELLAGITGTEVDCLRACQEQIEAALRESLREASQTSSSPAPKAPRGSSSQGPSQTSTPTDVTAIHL
As to the kind of experiment: Human CDK4/cyclin D3 inhibitory activity (QS S Assist CDK4/Cyclin D3_FP Kit, IMAP fluorescence polarization). In short, it runs like this: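 IMAP fluorescence polarization kit: CDK4/cyclin D3 at 12.5-25 ng/well with kit ATP/substrate/metal mix in 20 mM HEPES pH 7.4, 0.01% Tween20, 2 mM DTT, 45 min at room temperature. FP read at 485/535 nm after 30 min binding; IC50 from dose-response fit of percent inhibition versus enzyme and no-enzyme controls.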

Setting [1] is: 50% inhibitory concentration against CDK2/cyclin A2, given as class symbol.
[2] abbreviates: 50% inhibitory concentration against CDK4/cyclin D3, given as class symbol.
[3] abbreviates: Human CDK2/cyclin A2 inhibitory activity, read-out: CDK2 Activity symbol.
Setting [4] is: Human CDK4/cyclin D3 inhibitory activity, read-out: CDK4 Activity symbol.

Chain of CDK6/cyclin D3 (Q00534 whole entry): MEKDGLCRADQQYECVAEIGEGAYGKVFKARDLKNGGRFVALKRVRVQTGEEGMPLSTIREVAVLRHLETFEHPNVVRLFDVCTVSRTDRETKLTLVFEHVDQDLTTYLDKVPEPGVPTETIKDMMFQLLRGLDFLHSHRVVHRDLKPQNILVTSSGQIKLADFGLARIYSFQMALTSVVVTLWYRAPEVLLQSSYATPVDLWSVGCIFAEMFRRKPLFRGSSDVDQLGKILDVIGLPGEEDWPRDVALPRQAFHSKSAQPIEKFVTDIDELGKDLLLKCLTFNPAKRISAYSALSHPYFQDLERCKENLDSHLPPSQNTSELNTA
Chain of CDK6/cyclin D3 (P30281 whole entry partner): as the sequence (P30281 whole entry partner) above

For `CC(C)Nc1nc(C2CCCO2)cc2cnc(Nc3ccc(N4CCNCC4=O)cn3)nc12` (single isomer, unassigned) [Compound 672], the IC50 on CDK6/cyclin D3 was 10 to 100 nM; against CDK2/cyclin A2 (setting [1]), at least 100 nM; against CDK4/cyclin D3 (setting [2]) it was below 10 nM.
For `CC(C)N(C)c1nc([C@@H](C)O)cc2cnc(Nc3ccc(N4CCNCCC4=O)cn3)nc12` [Compound 904], the IC50 was below 10 nM on CDK6/cyclin D3, at least 100 nM on CDK2/cyclin A2 (setting [1]) and below 10 nM on CDK4/cyclin D3 (setting [2]).
`CCNc1nc([C@@H](C)O)cc2cnc(Nc3ccc(CN4CCN(CCO)CC4)cn3)nc12` [Compound 843]: the results for the IC50 on CDK6/cyclin D3, at CDK2/cyclin A2 (setting [1]) and on CDK4/cyclin D3 (setting [2]) were 10 to 100 nM, at least 100 nM and below 10 nM, respectively.
As for `c1cc(N2CCNCC2)nnc1Nc1ncc2cc(C3CCOC3)nc(N[C@H]3CCCOC3)c2n1` (single isomer, unassigned) [Compound 938], the values for the IC50 at CDK6/cyclin D3, at CDK2/cyclin A2 (setting [1]) and on CDK4/cyclin D3 (setting [2]) were 10 to 100 nM, at least 100 nM and below 10 nM, respectively.
In the case of `C[C@@H](O)c1cc2cnc(Nc3ccc4c(n3)CCNC4)nc2c(N[C@H]2CCCOC2)n1` [Compound 778], the IC50 is 10 to 100 nM at CDK6/cyclin D3, at least 100 nM on CDK2/cyclin A2 (setting [1]) and below 10 nM at CDK4/cyclin D3 (setting [2]).
Regarding `CC(C)Nc1nc(C2(C)COC2)cc2cnc(Nc3ccc(CN4CCNCC4)cn3)nc12` [Compound 883], the IC50 is below 10 nM on CDK6/cyclin D3, at least 100 nM on CDK2/cyclin A2 (setting [1]) and below 10 nM against CDK4/cyclin D3 (setting [2]).
With `CCCNc1nc([C@@H](C)O)cc2cnc(Nc3ccc(CN4CCN(CCO)CC4)cn3)nc12` [Compound 844], the IC50 is below 10 nM at CDK6/cyclin D3, at least 100 nM at CDK2/cyclin A2 (setting [1]) and below 10 nM at CDK4/cyclin D3 (setting [2]).
As for `CO[C@H](C)c1cc2cnc(Nc3ccc(N4CCNCC4)nn3)nc2c(NC(C)C)n1` [Compound 217, (R)—N8-isopropyl-6-(1-methoxyethyl)-N2-(6-(piperazin-1-yl)pyridazin-3-yl)pyrido[3,4-d]pyrimidine-2,8-diamine], the IC50 is 10 to 100 nM on CDK6/cyclin D3, at least 100 nM on CDK2/cyclin A2 (setting [3]) and below 10 nM on CDK4/cyclin D3 (setting [4]).
With `CO[C@H](C)c1cc2cnc(Nc3ccc(N4CCNCC4)nn3)nc2c(N[C@H]2CCCOC2)n1` [Compound 304], the IC50 is 10 to 100 nM at CDK6/cyclin D3, at least 100 nM on CDK2/cyclin A2 (setting [3]) and below 10 nM at CDK4/cyclin D3 (setting [4]).
For the compound `Cc1nc(Nc2ncc3cc([C@@H](C)O)nc(NC(C)C)c3n2)ccc1N1CCNCC1=O` [Compound 749], the IC50 at CDK6/cyclin D3 was 10 to 100 nM; on CDK2/cyclin A2 (setting [1]) it was at least 100 nM; against CDK4/cyclin D3 (setting [2]), below 10 nM.
Turning to `CO[C@H](C)c1cc2cnc(Nc3ccc(CN4CCNCC4)cn3)nc2c(NC(C)C)n1` [Compound 220], the IC50 on CDK6/cyclin D3 is 10 to 100 nM; on CDK2/cyclin A2 (setting [3]), at least 100 nM; on CDK4/cyclin D3 (setting [4]), below 10 nM.
For the compound `c1cc(Nc2ncc3cc(C4CCOC4)nc(N[C@H]4CCCOC4)c3n2)ncc1CN1CCNCC1` (single isomer, unassigned) [Compound 941], the figures for the IC50 at CDK6/cyclin D3, against CDK2/cyclin A2 (setting [1]) and on CDK4/cyclin D3 (setting [2]) were below 10 nM, at least 100 nM and below 10 nM, respectively.
On to `CC(C)Nc1nc([C@@H](C)O)cc2cnc(Nc3ccc(N4CCNCC4=O)cn3)nc12` [Compound 230], for which the results for the IC50 on CDK6/cyclin D3, on CDK2/cyclin A2 (setting [3]) and on CDK4/cyclin D3 (setting [4]) were below 10 nM, at least 100 nM and below 10 nM, respectively.
Consider `CC(C)Nc1nc([C@@H](C)O)cc2cnc(Nc3ccc(N4CCNCC4)cn3)nc12` [Compound 16], for which the IC50 is below 10 nM on CDK6/cyclin D3, at least 100 nM on CDK2/cyclin A2 (setting [3]) and below 10 nM at CDK4/cyclin D3 (setting [4]).
As for `CCCNc1nc([C@@H](C)OC)cc2cnc(Nc3ccc(N4CCNCC4)nn3)nc12` [Compound 819], the IC50 was 10 to 100 nM at CDK6/cyclin D3, at least 100 nM against CDK2/cyclin A2 (setting [1]) and below 10 nM at CDK4/cyclin D3 (setting [2]).
For `CO[C@H](C)c1cc2cnc(Nc3cnc(N4CCNCC4)cn3)nc2c(NC(C)C)n1` [Compound 363], the IC50 at CDK6/cyclin D3 was 10 to 100 nM; at CDK2/cyclin A2 (setting [3]), at least 100 nM; at CDK4/cyclin D3 (setting [4]) it was below 10 nM.
Turning to `CO[C@H](C)c1cc2cnc(Nc3ccc(CN4CCNCC4)cn3)nc2c(N[C@H]2CCCOC2)n1` [Compound 300], the IC50 is 10 to 100 nM on CDK6/cyclin D3, at least 100 nM at CDK2/cyclin A2 (setting [3]) and below 10 nM on CDK4/cyclin D3 (setting [4]).
With `CCC(O)c1cc2cnc(Nc3ccc(N4CCNCC4=O)cn3)nc2c(NC(C)C)n1` (stereo not shown) [Compound 1036], the values for the IC50 on CDK6/cyclin D3, against CDK2/cyclin A2 (setting [1]) and against CDK4/cyclin D3 (setting [2]) were 10 to 100 nM, at least 100 nM and below 10 nM, respectively.
Take `CC(C)Nc1nc([C@@H](C)O)cc2cnc(Nc3ccc4c(n3)CCN(CCN(C)C)C4)nc12` [Compound 954]: the IC50 is below 10 nM on CDK6/cyclin D3, at least 100 nM against CDK2/cyclin A2 (setting [1]) and below 10 nM at CDK4/cyclin D3 (setting [2]).
`CC(C)Nc1nc(C2(C)COC2)cc2cnc(Nc3ccc(N4CCNCC4)nn3)nc12` [Compound 879]: the results for the IC50 at CDK6/cyclin D3, against CDK2/cyclin A2 (setting [1]) and at CDK4/cyclin D3 (setting [2]) were below 10 nM, at least 100 nM and below 10 nM, respectively.
As for `CC(C)Nc1nc(C2(C)COC2)cc2cnc(Nc3ccc(N4CCNCC4=O)cn3)nc12` [Compound 779], the IC50 at CDK6/cyclin D3 is below 10 nM; at CDK2/cyclin A2 (setting [1]), at least 100 nM; at CDK4/cyclin D3 (setting [2]), below 10 nM.
As for `CC(C)Nc1nc([C@@H](C)O)cc2cnc(Nc3ccc4c(n3)CCN(CCO)C4)nc12` [Compound 929], the IC50 on CDK6/cyclin D3 is below 10 nM; at CDK2/cyclin A2 (setting [1]) it was at least 100 nM; on CDK4/cyclin D3 (setting [2]), below 10 nM.
Turning to `COCC(C)(C)Nc1nc([C@@H](C)O)cc2cnc(Nc3ccc(CN4CCNCC4)cn3)nc12` [Compound 221], the IC50 on CDK6/cyclin D3 is 10 to 100 nM; at CDK2/cyclin A2 (setting [3]), at least 100 nM; on CDK4/cyclin D3 (setting [4]) it was below 10 nM.
For the compound `CC(C)Nc1nc(C(F)F)cc2cnc(Nc3ccc(N4CCNCC4)cn3)nc12` [Compound 3, 6-difluoromethyl-8-isopropyl-2-(5-piperazin-1-ylpyridin-2-yl)pyrido[3,4-d]pyrimidine-2,8-diamine], the IC50 on CDK6/cyclin D3 was below 10 nM.
Regarding `CCCNc1nc([C@@H](C)OC)cc2cnc(Nc3ccc(CN4CCNCC4)cn3)nc12` [Compound 818], the figures for the IC50 on CDK6/cyclin D3, on CDK2/cyclin A2 (setting [1]) and at CDK4/cyclin D3 (setting [2]) were 10 to 100 nM, at least 100 nM and below 10 nM, respectively.
